Test results published in US20040058425A1, “Crystal structure” (priority 2001, published 2004).

Assays:
PDHK [1] = experiment: Assay to measure whether compounds inhibit PDHK activity (kinase reaction with porcine PDH and MgATP, then residual PDH activity by NAD reduction at 340 nm); assay type: biochemical; settings: result in words
Method: Compounds were assessed for inhibition of PDHK in an assay adapted from Espinal, J. et al (1995) Drug Development Res. 35, 130-136. In the first part of the assay, compounds were incubated with porcine PDH (Sigma P-7032) and MgATP, and the reaction was stopped after defined intervals. In the second part of the assay, the residual PDH activity was measured by monitoring the rate of reduction of NAD at 340 nm.
The assay was performed in flat-bottom 96-well microtitre plates, using a final volume of 50 μl for the first part of the assay (kinase reaction), and 250 μl for the PDH reaction. At first, 10 μl test compound in a suitable diluent, 20 μl kinase buffer (20 mM potassium phosphate, pH7.0, 4 mM MgCl2, 4 mM dithiothreitol) and 10 μl PDH (Sigma, P-7032, diluted with water to a final concentration of 1.83 mg/ml) were mixed and incubated for 10 min; then 10 μl ATP solution (125 μM in kinase buffer) was added to start the reaction.
The incubations were done at 30° C. The kinase reaction was terminated after defined intervals (usually 0, 10, 20, 30, 60, and 90 min) by initiating the PDH reaction. […] Kinetic readings were then taken at 340 nm conducted at 12 sec intervals for 20 min with shaking for 1 sec before each reading was taken, in a SpectraMax plate reader. […]

PDHK [2] = experiment: Kinase activity of PDHK using a PDHK specific substrate peptide; assay type: biochemical; settings: data not shown

Compound	ATP dependent inhibition of the PDH complex (PDHK [1])	inhibition of the kinase activity of PDHK (PDHK [2])
N-{4-[(ethylanilino)sulfonyl]-2-methylphenyl}-3,3,3-trifluoro-2-hydroxy-2-methylpropanamide [Compound 2]	prevent ATP dependent inhibition of the PDH complex	do not inhibit the kinase activity of PDHK
CC1CN(C(=O)C(C)(O)C(F)(F)F)C(C)CN1C(=O)c1ccc(C#N)cc1 (stereo not shown) [Compound 1]	prevent ATP dependent inhibition of the PDH complex	do not inhibit the kinase activity of PDHK
